Activity calls are given as the source filed them. The rule behind the calls is not given here.
The molecules below were run on MCF7 (assay: Antiproliferative activity against human MCF7 cells assessed as reduction in colony formation at 3 uM incubated for 7 days by crystal violet staining based colony formation assay). Conditions: time 7.0 day.
Assay type: functional, cell-based
CCO/N=C1/c2ccccc2-c2nc(C#N)c(C#N)nc21 was tested, and the Activity was “Active”.

Each molecule was assayed against T1, Ubiquitin carboxyl-terminal hydrolase 8 (Homo sapiens, UniProt P40818) (assay: Inhibition of human full length USP8 overexpressed in baculovirus-infected insect cells using ubiquitin-C-terminal 7-amido-4-methylcoumarin as substrate by fluorescence spectroscopy). Conditions: not given.
T1 sequence (P40818 whole entry): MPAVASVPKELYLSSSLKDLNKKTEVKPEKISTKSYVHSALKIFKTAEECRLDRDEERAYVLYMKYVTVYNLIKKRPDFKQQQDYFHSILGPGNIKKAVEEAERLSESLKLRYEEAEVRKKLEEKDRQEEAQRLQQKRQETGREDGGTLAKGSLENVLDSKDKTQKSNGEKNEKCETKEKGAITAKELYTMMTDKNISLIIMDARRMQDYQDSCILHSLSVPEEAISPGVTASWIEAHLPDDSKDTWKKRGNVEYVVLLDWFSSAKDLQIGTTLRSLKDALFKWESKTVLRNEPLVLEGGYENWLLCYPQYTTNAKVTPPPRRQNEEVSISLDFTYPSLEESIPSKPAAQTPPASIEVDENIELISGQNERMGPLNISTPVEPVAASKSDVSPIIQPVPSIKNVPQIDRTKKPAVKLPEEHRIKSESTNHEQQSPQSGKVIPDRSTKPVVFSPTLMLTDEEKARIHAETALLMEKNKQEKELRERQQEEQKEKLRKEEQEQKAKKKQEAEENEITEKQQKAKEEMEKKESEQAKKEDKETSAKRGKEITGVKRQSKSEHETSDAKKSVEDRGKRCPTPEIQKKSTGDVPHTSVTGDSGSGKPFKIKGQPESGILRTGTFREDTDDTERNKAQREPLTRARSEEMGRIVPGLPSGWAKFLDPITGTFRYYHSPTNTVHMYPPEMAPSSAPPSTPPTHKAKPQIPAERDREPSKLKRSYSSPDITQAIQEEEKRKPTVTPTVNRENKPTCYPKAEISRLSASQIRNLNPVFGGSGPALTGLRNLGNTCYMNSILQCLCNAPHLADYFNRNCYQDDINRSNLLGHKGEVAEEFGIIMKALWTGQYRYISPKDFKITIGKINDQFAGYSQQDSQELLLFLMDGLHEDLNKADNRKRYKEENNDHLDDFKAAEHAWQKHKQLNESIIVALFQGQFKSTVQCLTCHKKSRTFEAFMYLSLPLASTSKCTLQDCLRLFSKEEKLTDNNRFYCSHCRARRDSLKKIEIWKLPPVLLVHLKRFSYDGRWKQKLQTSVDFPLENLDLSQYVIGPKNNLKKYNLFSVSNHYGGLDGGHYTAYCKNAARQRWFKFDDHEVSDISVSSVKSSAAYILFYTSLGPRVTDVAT
Molecule N#Cc1nc2c(nc1C#N)-c1ccccc1/C2=N\OCc1ccccc1 has an IC50 of 0.85 µM.
C=CCO/N=C1\c2ccccc2-c2nc(C#N)c(C#N)nc21 showed an IC50 of 0.56 µM.
N#Cc1cc2c(cc1C#N)-c1ccccc1C2=O showed an IC50 of 0.29 µM.

The molecules below were run against T1, Ubiquitin carboxyl-terminal hydrolase 8 (assay: (§1) Inhibition of N-terminal His6-tagged USP8 (unknown origin) expressed in Escherichia coli BL21 (DE3) cells using ubiquitin-rhodamine -110 as substrate incubated for 15 mins followed by substrate addition measured after 1 hrs by ubiquitin-rhodamine-110 based fluorometric assay). Conditions: not given.
COc1ccc(N2CCN(C(=S)Nc3ccc([N+](=O)[O-])cc3)CC2)c(N)c1 gave an IC50 of 2.6 µM.

Each molecule was assayed against T2, Ubiquitin carboxyl-terminal hydrolase 7 (Homo sapiens, UniProt Q93009) (assay: Inhibition of USP7 (unknown origin) […]). Conditions: not given.
T2 sequence (Q93009 whole entry): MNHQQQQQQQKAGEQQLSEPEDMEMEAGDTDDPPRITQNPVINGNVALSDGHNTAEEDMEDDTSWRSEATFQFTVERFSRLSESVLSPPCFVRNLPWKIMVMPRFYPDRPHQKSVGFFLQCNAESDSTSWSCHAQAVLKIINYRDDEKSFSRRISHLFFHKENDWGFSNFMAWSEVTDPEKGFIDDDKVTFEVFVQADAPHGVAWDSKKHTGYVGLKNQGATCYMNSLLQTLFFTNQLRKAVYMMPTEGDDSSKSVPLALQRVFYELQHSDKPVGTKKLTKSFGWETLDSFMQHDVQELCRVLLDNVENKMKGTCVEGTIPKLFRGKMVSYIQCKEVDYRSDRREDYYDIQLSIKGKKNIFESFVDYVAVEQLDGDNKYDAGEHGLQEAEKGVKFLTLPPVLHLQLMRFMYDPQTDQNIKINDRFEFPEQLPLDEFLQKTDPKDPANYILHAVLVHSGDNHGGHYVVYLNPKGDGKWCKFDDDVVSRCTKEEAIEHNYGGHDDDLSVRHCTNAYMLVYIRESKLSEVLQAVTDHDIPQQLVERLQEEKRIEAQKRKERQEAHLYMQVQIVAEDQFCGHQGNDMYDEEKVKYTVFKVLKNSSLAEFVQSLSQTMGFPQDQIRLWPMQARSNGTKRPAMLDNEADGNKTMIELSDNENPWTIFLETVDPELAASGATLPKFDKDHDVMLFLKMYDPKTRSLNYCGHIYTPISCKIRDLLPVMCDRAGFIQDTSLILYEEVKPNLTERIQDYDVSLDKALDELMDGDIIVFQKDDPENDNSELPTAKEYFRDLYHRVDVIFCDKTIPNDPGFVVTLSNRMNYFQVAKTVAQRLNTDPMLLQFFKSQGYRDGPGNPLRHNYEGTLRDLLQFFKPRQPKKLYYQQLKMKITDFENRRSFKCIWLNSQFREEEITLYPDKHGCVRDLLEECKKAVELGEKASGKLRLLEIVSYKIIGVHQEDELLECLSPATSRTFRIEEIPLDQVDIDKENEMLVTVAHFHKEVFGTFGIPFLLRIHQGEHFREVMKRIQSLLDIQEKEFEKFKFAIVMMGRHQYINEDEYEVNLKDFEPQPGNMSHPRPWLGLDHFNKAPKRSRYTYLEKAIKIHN
COc1ccc(N2CCN(C(=S)Nc3ccc([N+](=O)[O-])cc3)CC2)c(N)c1 was tested, and the IC50 was 10.5 µM.

Each molecule was assayed against T1, Ubiquitin carboxyl-terminal hydrolase 8 (assay: as §1, with “origin) catalytic domain (734 to 1110 residues)” for “origin)”, “cells assessed as deubiquitinating activity” for “cells”, “30” for “15”, “30 mins” for “1 hrs”). Conditions: not given.
Molecule CCN1CCN(c2ccc(-c3cc(=O)c4c(O)cc(O)c(Oc5c(C)n[nH]c5C)c4o3)cc2)CC1 has an IC50 of 15.5 µM.
With COc1c(O)cc(O)c2c(=O)cc(-c3ccc(N4CCN(C)CC4)cc3)oc12 the IC50 was 16.5 µM.
With Cc1n[nH]c(C)c1Oc1c(O)cc(O)c2c(=O)cc(-c3ccc(N4CCCNCC4)cc3)oc12 the IC50 was 17.6 µM.
Cc1n[nH]c(C)c1Oc1c(O)cc(O)c2c(=O)cc(-c3ccc(N4CCN(c5ccccc5)CC4)cc3)oc12 showed an IC50 of 3.5 µM.
In the case of CC(C)Oc1c(O)cc(O)c2c(=O)cc(-c3ccc(N4CCCNCC4)cc3)oc12, the IC50 is reported as 24.5 µM.
COc1c(O)cc(O)c2c(=O)cc(-c3ccc(N4CCC(O)CC4)cc3)oc12 showed an IC50 of 36 µM.
COc1c(O)cc(O)c2c(=O)cc(-c3ccc(N(CCO)CCO)cc3)oc12 gave an IC50 of 43.7 µM.
With COc1c(O)cc(O)c2c(=O)cc(-c3ccc(N4CCCC4)cc3)oc12 the IC50 was 16.2 µM.
Work on O=c1cc(-c2ccc(N3CCCNCC3)cc2)oc2c(OC3CCCCC3)c(O)cc(O)c12 yielded an IC50 of 16.2 µM.
For Cc1n[nH]c(C)c1Oc1c(O)cc(O)c2c(=O)cc(-c3ccc(N4CCN(C(C)C)CC4)cc3)oc12, the IC50 was 16.3 µM.
Cc1n[nH]c(C)c1Oc1c(O)cc(O)c2c(=O)cc(-c3ccc(N4CCN(CCO)CC4)cc3)oc12 showed an IC50 of 23.5 µM.
COc1c(O)cc(O)c2c(=O)cc(-c3ccc(N4CCN(C=O)CC4)cc3)oc12 showed an IC50 of 2.2 µM.
With COc1c(O)cc(O)c2c(=O)cc(-c3ccc(N4CCOCC4)cc3)oc12 the IC50 was 18.3 µM.
Molecule Cc1n[nH]c(C)c1Oc1c(O)cc(O)c2c(=O)cc(-c3ccc(N4CCN(C(=O)c5ccco5)CC4)cc3)oc12 has an IC50 of 5.1 µM.
With COc1c(O)cc(O)c2c(=O)cc(-c3ccc(N4CCN(CCO)CC4)cc3)oc12 the IC50 was 45.2 µM.
In the case of COc1c(O)cc(O)c2c(=O)cc(-c3ccc(N4CCCNCC4)cc3)oc12, the IC50 is reported as 31.6 µM.

Each molecule was assayed against T2, Ubiquitin carboxyl-terminal hydrolase 7 (assay: Inhibition of human full length USP7 overexpressed in baculovirus-infected insect cells using ubiquitin-C-terminal 7-amido-4-methylcoumarin as substrate by fluorescence spectroscopy). Conditions: not given.
N#Cc1cc2c(cc1C#N)-c1ccccc1C2=O was tested, and the IC50 was 3.5 µM.

Each molecule was assayed against NAD(P)H dehydrogenase [quinone] 1 (Homo sapiens) (UniProt P15559) (assay: Substrate activity at NQO1 (unknown origin) assessed as reduction in NADPH level measured per umol of NQO1 at 20 uM in presence of NADPH by absorbance based analysis). Conditions: not given.
NAD(P)H dehydrogenase [quinone] 1 (Homo sapiens), sequence (P15559 whole entry): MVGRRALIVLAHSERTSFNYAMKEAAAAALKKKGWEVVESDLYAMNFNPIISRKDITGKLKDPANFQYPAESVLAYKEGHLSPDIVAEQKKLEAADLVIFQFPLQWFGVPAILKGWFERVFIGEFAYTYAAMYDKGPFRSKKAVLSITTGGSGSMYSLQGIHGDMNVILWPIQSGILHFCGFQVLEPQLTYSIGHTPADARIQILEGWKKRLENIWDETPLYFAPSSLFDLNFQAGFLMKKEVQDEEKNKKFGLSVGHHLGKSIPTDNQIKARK
CCO/N=C1/c2ccccc2-c2nc(C#N)c(C#N)nc21 showed an Activity of 1300 µmol/min.

These molecules were tested against T1, Ubiquitin carboxyl-terminal hydrolase 8 (assay: Binding affinity to N-terminal His6-tagged USP8 catalytic domain (734 to 1110 residues) (unknown origin) expressed in Escherichia coli BL21 (DE3) cells by surface plasmon resonance method). Conditions: not given.
With COc1c(O)cc(O)c2c(=O)cc(-c3ccc(N4CCCNCC4)cc3)oc12 the Kd was 43.6 µM.

Reference: ChEMBL document CHEMBL5131570, “Discovery of Potent Small-Molecule USP8 Inhibitors for the Treatment of Breast Cancer through Regulating ERα Expression” (J Med Chem, 2022)
